Measured values published in publication PMC3608651, “A Broad Profile of Co-Dominant Epitopes Shapes the Peripheral Mycobacterium tuberculosis Specific CD8+ T-Cell Immune Response in South African Patients with Active Tuberculosis” (PLoS ONE, 2013).
Read-outs that look alike come from different tables or passages of the source.

Experiments:
Type in all cases: binding
HLA-A*24:02 [1] = target: T1, HLA-A*24:02 (Homo sapiens, UniProt P04439, D101N/D140Y/D185E/E176V/E190D/F33S/G103R/G107R/I119L/I121M/I306V/K335N/L105A/L180Q/L300P/N151K/N90K/Q86E/Q94H/R106L/R138H/R89G/T104I/T345S/V100E/W191G/Y123F)
HLA-A*30:02 [2] = target: T2, HLA-A*30:02 (Homo sapiens, UniProt P04439, D101N/D140H/D185E/E176R/F33S/G80R/H175R/K168Q/Q94H/R138E/R41S/V100E); details: duplicated experiments, positive binder >40%
HLA-B*07:02 = HLA-B*07:02 (Homo sapiens, UniProt P01889); details: percent relative the binding of positive control peptide […]; duplicated experiments; positive binder >40%
HLA-C*07:01 = HLA-C*07:01 (Homo sapiens, UniProt P10321, K90N/S123Y); details: duplicated experiments, positive binder >40%
HLA-A*02:01 [3] = target: T3, HLA-A*02:01 (Homo sapiens, UniProt P04439, D140Y/D185E/D98H/E176V/E277Q/G131W/G231S/I119V/I121R/I166T/I218V/L300P/L318F/N151K/N90K/P208A/P217A/Q86G/Q94H/R138H/R169H/T345S)
HLA-A*68:01 [4] = target: T4, HLA-A*68:01 (Homo sapiens, UniProt P04439, A269V/D185E/E176V/E277Q/E87N/F33Y/G231S/I121M/I166T/I218V/L180W/L300P/L318F/N151K/P208A/P217A/Q86R/R169H/T345S); details: duplicated experiments, positive binder >40%
HLA-A*24:02 [5] = target: T1, HLA-A*24:02; details: duplicated experiments, positive binder >40%
HLA-A*30:01 = HLA-A*30:01 (Homo sapiens, UniProt P04439, D140H/D185E/E176W/F33S/G80R/H175R/K168Q/R138E/R41S); details: duplicated experiments, positive binder >40%
HLA-A*24:02 [6] = target: T1, HLA-A*24:02; details: time points 0-8 h
HLA-B*58:01 [7] = target: T5, HLA-B*58:01 (Homo sapiens, UniProt P01889, A329T/C349S/D201E/D98Y/E176V/E187L/E204Q/E69T/G107R/I218V/I90N/K202T/L105A/L119I/N104I/N87E/Q89R/Q94S/R106L/R155S/R180L/R86G/S101N/S121R/S35A/S48A/T118I/V127L/V306I/V36M/Y140S/Y91M); details: duplicated experiments, positive binder >40%
HLA-B*58:01 [8] = target: T5, HLA-B*58:01; details: time points 0-8 h
HLA-A*30:02 [9] = target: T2, HLA-A*30:02; details: time points 0-8 h
HLA-B*58:01 [10] = target: T5, HLA-B*58:01
HLA-A*30:02 [11] = target: T2, HLA-A*30:02
HLA-A*02:01 [12] = target: T3, HLA-A*02:01; details: […]; peptide quantity for 50% binding saturation
HLA-A*02:01 [13] = target: T3, HLA-A*02:01; details: time points 0-8 h; time when 50% of peptide has dissociated
HLA-A*68:01 [14] = target: T4, HLA-A*68:01; details: time points 0-8 h
HLA-A*68:01 [15] = target: T4, HLA-A*68:01
[16] = peptide titrated 10−4 to 10−9 M
[17] = percent relative the binding of positive control peptide KIQNFRVYY
[18] = percent relative the binding of positive control peptide KYFDEHYEY
[19] = percent relative the binding of positive control peptide FLPSDFFPSV, plate-bound monomer 0.5 µg/ml, duplicated experiments, positive binder >40%
[20] = percent relative the binding of positive control peptide KTGGPIYKR
[21] = percent relative the binding of positive control peptide RYLKDQQLL
[22] = percent relative the binding of positive control peptide KTKDIVNGL
[23] = percent relative the binding of positive control peptide IAMESIVIW
[24] = percent relative the binding of positive control peptide […]
[25] = percent relative the binding of positive control peptide […], plate-bound monomer 0.5 µg/ml, duplicated experiments, positive binder >40%

Row | Substance | Bind B*07:02 (HLA-B*07:02) [%] | O-rate A*24:02 (t1/2) (HLA-A*24:02 [6]) [min] | Aff A*24:02 (ED50) (HLA-A*24:02 [1]) | Bind A*30:02 (HLA-A*30:02 [2]; [24]) [%] | Bind C*07:01 (HLA-C*07:01; [24]) [%] | Bind A*68:01 (HLA-A*68:01 [4]; [24]) [%] | Bind A*24:02 (HLA-A*24:02 [5]; [24]) [%] | Bind A*30:01 (HLA-A*30:01; [24]) [%] | Bind B*58:01 (HLA-B*58:01 [7]; [24]) [%] | Bind A*02:01 (HLA-A*02:01 [3]; [25]) [%] | also measured
1 | AYQGVQQKW [Rv3875_50–58] | 10 | 24 | – | – | – | – | – | – | – | – | Aff A*24:02 (ED50) (HLA-A*24:02 [1]; [16]): 1e-08 M; Bind A*30:02 (HLA-A*30:02 [2]; [17]): 33%; Bind C*07:01 (HLA-C*07:01; [18]): 0%; Bind A*02:01 (HLA-A*02:01 [3]; [19]): 0%; Bind A*68:01 (HLA-A*68:01 [4]; [20]): 6%; Bind A*24:02 (HLA-A*24:02 [5]; [21]): 60%; Bind A*30:01 (HLA-A*30:01; [22]): 0%; Bind B*58:01 (HLA-B*58:01 [7]; [23]): 35%
2 | SMAGSSAMI | 14 | 24 | 2E -07 M | 45 | 0 | 0 | 52 | 0 | 95 | – | Bind A*02:01 (HLA-A*02:01 [3]): 81; O-rate B*58:01 (t1/2) (HLA-B*58:01 [8]): 96 min; O-rate A*30:02 (t1/2) (HLA-A*30:02 [9]): 78 min; Aff B*58:01 (ED50) (HLA-B*58:01 [10]): 2E -07 M; Aff A*30:02 (ED50) (HLA-A*30:02 [11]): 9e-08 M
3 | GWDINTPAF | 22 | 66 | 1E -07 M | 0 | 10 | 5 | 146 | 11 | 0 | 0 | –
4 | MYNYPTMLG [Rv0288_5–13m1] | – | 30 | 2e-07 M | 23 | – | – | 47 | – | – | – | –
5 | QWLSANRAV | 25 | 24 | 2e-06 M | 120 | 11 | 13 | 110 | 39 | 0 | 21 | O-rate A*30:02 (t1/2) (HLA-A*30:02 [9]): 72 min; Aff A*30:02 (ED50) (HLA-A*30:02 [11]): 7E -08 M
6 | QIMYNYPTM [Rv0288_3–11m1] | 5 | 30 | 2e-06 M | 23 | – | – | 40 | 12 | 9 | 51 | Aff A*02:01 (ED50) (HLA-A*02:01 [12]): 3e-06 M; O-rate A*02:01 (t1/2) (HLA-A*02:01 [13]): 42 min
7 | SGSEAYQGV [Rv3875_46–54] | 9 | 30 | – | – | – | – | – | – | – | – | Aff A*24:02 (ED50) (HLA-A*24:02 [1]; [16]): 9e-09 M; Bind A*30:02 (HLA-A*30:02 [2]; [17]): 0%; Bind C*07:01 (HLA-C*07:01; [18]): 24%; Bind A*02:01 (HLA-A*02:01 [3]; [19]): 22%; Bind A*68:01 (HLA-A*68:01 [4]; [20]): 0%; Bind A*24:02 (HLA-A*24:02 [5]; [21]): 54%; Bind A*30:01 (HLA-A*30:01; [22]): 0%; Bind B*58:01 (HLA-B*58:01 [7]; [23]): 2%
8 | QT YKWETFL | 0 | 120 | 2e-08 M | 41 | 15 | 46 | 110 | 0 | 40 | 60 | Aff A*02:01 (ED50) (HLA-A*02:01 [12]): 3E -07 M; O-rate B*58:01 (t1/2) (HLA-B*58:01 [8]): 90 min; O-rate A*68:01 (t1/2) (HLA-A*68:01 [14]): 42 min; O-rate A*30:02 (t1/2) (HLA-A*30:02 [9]): 60 min; Aff B*58:01 (ED50) (HLA-B*58:01 [10]): 2E -08 M; Aff A*30:02 (ED50) (HLA-A*30:02 [11]): 2E -08 M; O-rate A*02:01 (t1/2) (HLA-A*02:01 [13]): 156 min; Aff A*68:01 (ED50) (HLA-A*68:01 [15]): 2E -07 M
9 | YWGAQLNAM | 12 | 30 | 8e-09 M | 63 | 0 | 16 | 113 | 0 | 0 | 11 | –
10 | KAGCQTYKW | 9 | 114 | 7E -08 M | 45 | 31 | 25 | 140 | 13 | 193 | 22 | O-rate B*58:01 (t1/2) (HLA-B*58:01 [8]): 480 min; Aff B*58:01 (ED50) (HLA-B*58:01 [10]): 3E -08 M
11 | MYNYPTMLD [Rv0288_5–13m3] | – | 30 | 2e-08 M | 0 | – | – | 76 | – | – | – | –
12 | MYNYPAMLD [Rv0288_5–13m2] | – | 24 | 3e-08 M | 59 | – | – | 60 | – | – | – | O-rate A*30:02 (t1/2) (HLA-A*30:02 [9]): 42 min; Aff A*30:02 (ED50) (HLA-A*30:02 [11]): 2e-06 M
13 | TYKW ETFLT | 3 | 30 | 2e-06 M | 13 | 0 | 4 | 118 | 0 | 0 | 36 | –
14 | IMYNYPTML [Rv0288_4–12m1] | 7 | 30 | 8e-07 M | 15 | 5 | – | 43 | 28 | 37 | 88 | Aff A*02:01 (ED50) (HLA-A*02:01 [12]): 4e-07 M; Aff B*58:01 (ED50) (HLA-B*58:01 [10]): 0.0003 M; O-rate A*02:01 (t1/2) (HLA-A*02:01 [13]): 240 min
